Results taken from publication PMC11944389, “Electrochemical Analysis and Inhibition Assay of Immune-Modulating Enzyme, Indoleamine 2,3-Dioxygenase” (Pharmaceuticals, 2025).

Target: T1, human indoleamine 2,3-dioxygenase 1 (hIDO1) (Homo sapiens, UniProt P14902)
T1 construct: gene IDO1; full-length hIDO1
Experiment: electrochemical inhibition assay (voltammetry, purified hIDO1 immobilized on nanoporous gold electrode, with O2 and Trp)
Assay type: biochemical

T1 sequence (P14902 whole entry): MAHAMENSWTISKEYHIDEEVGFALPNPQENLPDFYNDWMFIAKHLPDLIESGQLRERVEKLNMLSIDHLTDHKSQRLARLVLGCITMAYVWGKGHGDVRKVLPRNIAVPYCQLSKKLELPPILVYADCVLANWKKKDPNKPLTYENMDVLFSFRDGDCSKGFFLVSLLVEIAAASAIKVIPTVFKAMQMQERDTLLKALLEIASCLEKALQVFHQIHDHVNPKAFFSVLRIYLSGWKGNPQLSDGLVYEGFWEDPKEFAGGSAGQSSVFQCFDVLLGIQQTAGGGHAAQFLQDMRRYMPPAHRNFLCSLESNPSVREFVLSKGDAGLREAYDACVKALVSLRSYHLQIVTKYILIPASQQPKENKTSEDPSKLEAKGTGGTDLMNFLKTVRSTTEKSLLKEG

## CC(C)(C)c1nc(CN2CCN(CC(O)c3ccccc3)CC2)no1 (racemic) [MTS-7, 2-(4-{[5-(2-methyl-2-propanyl)-1,2,4-oxadiazol-3-yl]methyl}-1-piperazinyl)-1-phenylethanol]
  IC50: ~10 nM
